Test system: MRSA clinical isolates
Assay: Antibiotic susceptibility profile of MRSA clinical isolates (EUCAST breakpoints)
Format: cell-based, Staphylococcus aureus
From the text: Clinical MRSA isolates with multidrug resistance were obtained from the collection of the Research Institute of Antimicrobial Chemotherapy, Smolensk State Medical Academy.

In the case of CC(=O)O[C@H]1C[C@@]2(C)[C@@H](C[C@@H](O)[C@H]3[C@@]4(C)CC[C@@H](O)[C@@H](C)[C@@H]4CC[C@@]32C)/C1=C(\CCC=C(C)C)C(=O)O [Fusidic acid], the Drug sensibility profile (MRSA strain 1) is reported as “S”, the Drug sensibility profile (MRSA strain 2) is reported as “S” and the Drug sensibility profile (MRSA strain 3) is reported as “S”. The Drug sensibility profile (MRSA strain 4) was “S”, the Drug sensibility profile (MRSA strain 5) was “S” and the Drug sensibility profile (MRSA strain 6) was “S”. For the same compound, the Drug sensibility profile (MRSA strain 7) was “S”, the Drug sensibility profile (MRSA strain 8) was “S” and the Drug sensibility profile (MRSA strain 9) was “S”. For the same compound, the Drug sensibility profile (MRSA strain 10) was “S”, the Drug sensibility profile (MRSA strain 12) was “S” and the Drug sensibility profile (MRSA strain 13) was “S”. For the same compound, the Drug sensibility profile (MRSA strain 14) was “S”, the Drug sensibility profile (MRSA strain 15) was “S” and the Drug sensibility profile (MRSA strain 16) was “S”. For the same compound, the Drug sensibility profile (MRSA strain 17) was “R”, the Drug sensibility profile (MRSA strain 18) was “S” and the Drug sensibility profile (MRSA strain 21) was “S”. For the same compound, the Drug sensibility profile (MRSA strain 23) was “S”, the Drug sensibility profile (MRSA strain 24) was “S” and the Drug sensibility profile (MRSA strain 25) was “S”. For the same compound, the Drug sensibility profile (MRSA strain 26) was “S”, the Drug sensibility profile (MRSA strain 27) was “S” and the Drug sensibility profile (MRSA strain 28) was “S”. For the same compound, the Drug sensibility profile (MRSA strain 29) was “S”, the Drug sensibility profile (MRSA strain 30) was “S” and the Drug sensibility profile (MRSA strain 31) was “S”. For the same compound, the Drug sensibility profile (MRSA strain 34) was “S”, the Drug sensibility profile (MRSA strain 35) was “S” and the Drug sensibility profile (MRSA strain 36) was “S”. The Drug sensibility profile (MRSA strain 40) was “S”, the Drug sensibility profile (MRSA strain 41) was “S” and the Drug sensibility profile (MRSA strain 42) was “S”. The Drug sensibility profile (MRSA strain 43) was “S”, the Drug sensibility profile (MRSA strain 44) was “S” and the Drug sensibility profile (MRSA strain 45) was “S”. The Drug sensibility profile (MRSA strain 46) was “S”, the Drug sensibility profile (MRSA strain 48) was “S” and the Drug sensibility profile (MRSA strain 49) was “S”. For the same compound, the Drug sensibility profile (MRSA strain 50) was “S” and the Drug sensibility profile (MRSA strain 51) was “S”.

— article PMC11899342, “Novel Triazeneindole Antibiotics: Synthesis and Hit-to-Lead Optimization” (International Journal of Molecular Sciences, 2025)
